Each structure is given as a SMILES string.

Experimental findings from patent US20240381871A1, “5-HALOALKOXY-PYRIMIDINE COMPOUNDS AS HERBICIDES” (SYNGENTA CROP PROTECTION AG, priority 2020, published 2024) are described below.

What all share (type): in vivo
One test deals with Zea mays (ZEAMX). Put plainly: Comparative post-emergence test, crop damage. The conditions noted are these: 336 h, after 14 days, read-out: ZEAMX damage (100=total damage to plant; 0=no damage). The procedure:
(§1) Seeds of test species were sown in standard soil in pots. After cultivation for 10 days (post-emergence) under controlled conditions in a glasshouse (at 24/16° C., day/night; 14 hours light; 65% humidity), the plants were sprayed with an aqueous spray solution derived from the formulation of the technical active ingredient in 0.6 ml acetone and 45 ml formulation solution containing 10.6% Emulsogen EL (Registry number 61791-12-6), 42.2% N-methyl pyrrolidone, 42.2% dipropylene glycol monomethyl ether (CAS RN 34590-94-8) and 0.2% X-77 (CAS RN 11097-66-8). The test plants were then grown in a glasshouse under controlled conditions in a glasshouse (at 24/16° C., day/night; 14 hours light; 65% humidity) and watered twice daily. After 14 days, the test was evaluated (100=total damage to plant; 0=no damage to plant). • Weeds: Ipomea hederacea (IPOHE) • Crops: Zea mays (ZEAMX)

A further test deals with Ipomea hederacea (IPOHE). Put plainly: Comparative post-emergence test, weed control. The conditions noted are these: Ipomoea hederacea, 336 h, after 14 days, read-out: IPOHE damage (100=total damage to plant; 0=no damage). The method, then:
as §1

Test [1] deals with Abutilon theophrasti (ABUTH). Put plainly: Post-emergence herbicidal glasshouse test. The conditions noted are these: rate 250, evaluated after 13 days, the values are:
The method, then: (§2) Seeds of a variety of test species are sown in standard soil in pots, Amaranthus retoflexus (AMARE), Abutilon theophrasti (ABUTH), Setaria faberi (SETFA), Echinochloa crus-galli (ECHCG) and Ipomoea hederacea (IPOHE). After cultivation for one day (pre-emergence) or after 8 days cultivation (post-emergence) under controlled conditions in a glasshouse (at 24/16° C., day/night; 14 hours light; 65% humidity), the plants are sprayed with an aqueous spray solution derived from the formulation of the technical active ingredient in acetone/water (50:50) solution containing 0.5% Tween 20 (polyoxyethelyene sorbitan monolaurate, CAS RN 9005-64-5). Compounds are applied at 1000 g/ha unless otherwise stated. The test plants are then grown in a glasshouse under controlled conditions in a glasshouse (at 24/16° C., day/night; 14 hours light; 65% humidity) and watered twice daily. After 13 days for pre and post-emergence, the test is evaluated for the percentage damage caused to the plant.

Test [2] concerns Amaranthus retoflexus (AMARE). Put plainly: Post-emergence herbicidal glasshouse test. The conditions noted are these: rate 250, evaluated after 13 days, the values are: phytotoxicity score (1-5 scale). The procedure: as §2
The subject of test [3] is Ipomoea hederacea (IPOHE). Put plainly: Post-emergence herbicidal glasshouse test. The conditions noted are these: rate 250, evaluated after 13 days, the values are: phytotoxicity score (1-5 scale). The method, then: as §2
The test system of test [4] is Setaria faberi (SETFA). The experiment in a line: Post-emergence herbicidal glasshouse test. The conditions noted are these: rate 250, evaluated after 13 days, the values are:
The method, then: as §2

Test [5] deals with Abutilon theophrasti (ABUTH). Put plainly: Pre-emergence herbicidal glasshouse test. Conditions: rate 250, evaluated after 13 days, the values are:
The method, then:
as §2

For test [6], the system named is Amaranthus retoflexus (AMARE). Put plainly: Pre-emergence herbicidal glasshouse test. Conditions: rate 250, evaluated after 13 days, the values are:
The method, then: as §2

The subject of test [7] is Ipomoea hederacea (IPOHE). Put plainly: Pre-emergence herbicidal glasshouse test. The conditions noted are these: rate 250, evaluated after 13 days, the values are:
The method, then:
as §2

The test system of test [8] is Setaria faberi (SETFA). Put plainly: Pre-emergence herbicidal glasshouse test. Conditions: rate 250, evaluated after 13 days, the values are: phytotoxicity score (1-5). The method, then: as §2
In test [9] the test system is Echinochloa crus-galli (ECHCG). Put plainly: Post-emergence herbicidal glasshouse test. Conditions: rate 250, evaluated after 13 days, the values are: phytotoxicity score (1-5 scale). The procedure: as §2
Test [10] concerns Echinochloa crus-galli (ECHCG). The experiment in a line: Pre-emergence herbicidal glasshouse test. The conditions noted are these: rate 250, evaluated after 13 days, the values are: phytotoxicity score (1-5). The procedure:
as §2

As to `COc1cnc(Oc2cccc(F)c2-c2cc(C(F)F)no2)nc1`, in the test on Zea mays (ZEAMX), the plant injury at 2 g/ha amounted to 0%, the plant injury at 8 g/ha came to 0%, the plant injury at 60 g/ha is 10% and the plant injury at 125 g/ha worked out at 10%. For the same compound, in the test on Zea mays (ZEAMX), the plant injury at 250 g/ha came out at 10% and the plant injury at 500 g/ha is 40%. For the same compound, in the test on Ipomea hederacea (IPOHE), the pest or weed control at 2 g/ha is 10%, the pest or weed control at 8 g/ha came out at 10%, the pest or weed control at 60 g/ha was found to be 20% and the pest or weed control at 125 g/ha was found to be 50%. For the same compound, in the test on Ipomea hederacea (IPOHE), the pest or weed control at 250 g/ha stood at 60% and the pest or weed control at 500 g/ha was determined as 70%.

For the compound `COc1cnc(Oc2cccc(Cl)c2-c2cc(C(F)F)no2)nc1`, in the test with Zea mays (ZEAMX), the plant injury at 2 g/ha was 0%, the plant injury at 8 g/ha was 0%, the plant injury at 60 g/ha came out at 10% and the plant injury at 125 g/ha worked out at 20%. Also, the plant injury at 250 g/ha with Zea mays (ZEAMX) was found to be 30%. In the test with Ipomea hederacea (IPOHE), the pest or weed control at 2 g/ha was 20%, the pest or weed control at 8 g/ha worked out at 30%, the pest or weed control at 60 g/ha amounted to 20% and the pest or weed control at 125 g/ha was found to be 50%. Moreover, the pest or weed control at 250 g/ha in the test with Ipomea hederacea (IPOHE) was 60%.

As for `COc1cnc(Oc2cccc(Br)c2-c2cc(C(F)F)no2)nc1`, in the test with Zea mays (ZEAMX), the plant injury at 2 g/ha is 0%, the plant injury at 8 g/ha is 0%, the plant injury at 60 g/ha is 0% and the plant injury at 125 g/ha worked out at 10%. Further, the plant injury at 250 g/ha in the test on Zea mays (ZEAMX) is 30%. Moreover, in the test on Ipomea hederacea (IPOHE), the pest or weed control at 2 g/ha came out at 10%, the pest or weed control at 8 g/ha came to 30%, the pest or weed control at 60 g/ha was found to be 50% and the pest or weed control at 125 g/ha turned out to be 50%. Also, the pest or weed control at 250 g/ha with Ipomea hederacea (IPOHE) is 60%.

For `COc1cnc(Oc2cccc(C#N)c2-c2cc(C(F)F)no2)nc1`, in the test with Zea mays (ZEAMX), the plant injury at 2 g/ha worked out at 0%, the plant injury at 8 g/ha is 0%, the plant injury at 60 g/ha came out at 0% and the plant injury at 125 g/ha worked out at 10%. For the same compound, in the test with Zea mays (ZEAMX), the plant injury at 250 g/ha was 10% and the plant injury at 500 g/ha amounted to 40%. Moreover, in the test with Ipomea hederacea (IPOHE), the pest or weed control at 2 g/ha was 10%, the pest or weed control at 8 g/ha is 30%, the pest or weed control at 60 g/ha is 40% and the pest or weed control at 125 g/ha is 50%. In addition, in the test with Ipomea hederacea (IPOHE), the pest or weed control at 250 g/ha is 50% and the pest or weed control at 500 g/ha came out at 60%.

Compound `Fc1cccc(Oc2ncc(OC(F)F)cn2)c1-c1cc(C(F)F)no1` [Compound 1.001, 5-[2-[5-(difluoromethoxy)pyrimidin-2-yl]oxy-6-fluoro-phenyl]-3-(difluoromethyl)isoxazole] returned a Post-emergence activity ABUTH (% phytotoxicity) in test [1] of 3. This compound yielded a Post-emergence activity AMARE (% phytotoxicity) in test [2] of 4. This compound showed a Post-emergence activity IPOHE (% phytotoxicity) in test [3] of 3. The compound also showed a Post-emergence activity SETFA (% phytotoxicity) in the test with Setaria faberi (SETFA) [4] of 4. In test [5], this compound yielded a Pre-emergence activity ABUTH (% phytotoxicity) of 5. The same compound had a Pre-emergence activity AMARE (% phytotoxicity) in test [6] of 5. In [7], the Pre-emergence activity IPOHE (% phytotoxicity) worked out at 5. This compound also had a Pre-emergence activity SETFA (% phytotoxicity) with Setaria faberi (SETFA) [8] of 5. Moreover, in the test on Zea mays (ZEAMX), the plant injury at 8 g/ha stood at 0%, the plant injury at 60 g/ha was determined as 20%, the plant injury at 125 g/ha came out at 10% and the plant injury at 250 g/ha was determined as 20%. The plant injury at 500 g/ha with Zea mays (ZEAMX) amounted to 40%. Also, in the test on Ipomea hederacea (IPOHE), the pest or weed control at 2 g/ha came out at 30%, the pest or weed control at 8 g/ha amounted to 20%, the pest or weed control at 60 g/ha was found to be 70% and the pest or weed control at 125 g/ha was determined as 80%. Further, in the test on Ipomea hederacea (IPOHE), the pest or weed control at 250 g/ha is 90% and the pest or weed control at 500 g/ha came to 100%.

For the compound `Fc1cccc(Oc2ncc(OC(F)(F)F)cn2)c1-c1cc(C(F)F)no1` [Compound 1.002, 3-(difluoromethyl)-5-[2-fluoro-6-[5-(trifluoromethoxy)pyrimidin-2-yl]oxy-phenyl]isoxazole], the Post-emergence activity ABUTH (% phytotoxicity) in test [1] is 4. Besides, the Post-emergence activity AMARE (% phytotoxicity) in test [2] was 4. The compound also came in with a Post-emergence activity ECHCG (% phytotoxicity) in test [9] of 4. This compound also gave a Post-emergence activity IPOHE (% phytotoxicity) in test [3] of 3. Also, in the test with Setaria faberi (SETFA) [4], the Post-emergence activity SETFA (% phytotoxicity) was 4. Besides, the Pre-emergence activity ABUTH (% phytotoxicity) in [5] came to 5. In test [6], the Pre-emergence activity AMARE (% phytotoxicity) turned out to be 5. In [10], this compound registered a Pre-emergence activity ECHCG (% phytotoxicity) of 4. Moreover, the Pre-emergence activity IPOHE (% phytotoxicity) in [7] was 4. Besides, in the test with Setaria faberi (SETFA) [8], the Pre-emergence activity SETFA (% phytotoxicity) came out at 5.

`FC(F)Oc1cnc(Oc2cccc(Cl)c2CCCC(F)(F)F)nc1` [Compound 1.023, 2-[3-chloro-2-(4,4,4-trifluorobutyl)phenoxy]-5-(difluoromethoxy)pyrimidine] returned a Post-emergence activity ABUTH (% phytotoxicity) in test [1] of 1. The same compound displayed a Post-emergence activity AMARE (% phytotoxicity) in test [2] of 1. Moreover, in test [9], the Post-emergence activity ECHCG (% phytotoxicity) was determined as 1. Moreover, in [3], the Post-emergence activity IPOHE (% phytotoxicity) is 1. In the test with Setaria faberi (SETFA) [4], the Post-emergence activity SETFA (% phytotoxicity) worked out at 1. This compound registered a Pre-emergence activity ABUTH (% phytotoxicity) in test [5] of 1. This compound had a Pre-emergence activity AMARE (% phytotoxicity) in test [6] of 1. Moreover, the Pre-emergence activity ECHCG (% phytotoxicity) in test [10] turned out to be 1. The Pre-emergence activity IPOHE (% phytotoxicity) in test [7] was determined as 1. The Pre-emergence activity SETFA (% phytotoxicity) in the test on Setaria faberi (SETFA) [8] was 1.

Regarding `FC(F)Oc1cnc(Oc2cccc(Br)c2CCCC(F)(F)F)nc1` [Compound 1.024], in test [1], the Post-emergence activity ABUTH (% phytotoxicity) came to 1. In addition, the Post-emergence activity AMARE (% phytotoxicity) in test [2] was 2. The Post-emergence activity ECHCG (% phytotoxicity) in test [9] was 1. This compound also came in with a Post-emergence activity IPOHE (% phytotoxicity) in [3] of 1. In addition, the Post-emergence activity SETFA (% phytotoxicity) in the test with Setaria faberi (SETFA) [4] was determined as 1. Besides, the Pre-emergence activity ABUTH (% phytotoxicity) in test [5] worked out at 1. In test [6], this compound came in with a Pre-emergence activity AMARE (% phytotoxicity) of 2. The Pre-emergence activity ECHCG (% phytotoxicity) in [10] is 1. In addition, the Pre-emergence activity IPOHE (% phytotoxicity) in [7] was 1. The compound further displayed a Pre-emergence activity SETFA (% phytotoxicity) with Setaria faberi (SETFA) [8] of 1.

Turning to `COc1cnc(Oc2ccccc2-c2cc(C(F)F)no2)nc1` [Compound 213], in the test on Zea mays (ZEAMX), the plant injury at 2 g/ha is 0%, the plant injury at 8 g/ha was 0%, the plant injury at 60 g/ha stood at 0% and the plant injury at 125 g/ha was found to be 0%. For the same compound, in the test with Zea mays (ZEAMX), the plant injury at 250 g/ha is 0% and the plant injury at 500 g/ha turned out to be 20%. In the test on Ipomea hederacea (IPOHE), the pest or weed control at 2 g/ha is 0%, the pest or weed control at 8 g/ha was 10%, the pest or weed control at 60 g/ha stood at 20% and the pest or weed control at 125 g/ha was determined as 30%. In addition, in the test on Ipomea hederacea (IPOHE), the pest or weed control at 250 g/ha came out at 40% and the pest or weed control at 500 g/ha was 50%.
